Reference: US20250136617A1 (The Regents of the University of Colorado, A Body Corporate, priority 2022, published 2025)
Entries after “also recorded” stand apart in the source; their conditions may differ. Like-named read-outs stand apart in the source and are kept apart here.

How the values were obtained:
CXCR4 [1] = biological target: T1, CXCR4 (Homo sapiens, UniProt P61073); test: Tag-Lite CXCR4 binding assay (displacement of fluorescent SDF-1α)
Description: Binding activity was measured using the Cisbio Tag-Lite Chemokine CXCR4 system (CisBio, Bedford, MA). […] Following three-hour incubation, HTRF measurements were taken using the BMG LABTECH CLARIOstar Plus (BMG LABTECH Inc., Cary, NC) with emission signals set to the Cisbio Tag-Lite Binding Assay supplier guidelines. HTRF ratio calculations completed according to supplier guidelines.

CXCR4 [2] = biological target: T1, CXCR4; test: Adenylate cyclase (cAMP inhibition) assay, thiadiazine scaffold, CHO-CXCR4-cAMP cells; type: cell-based; set-up: host or cells: CHO-K1
Description: Tango™ CXCR4-bla U2OS Cells (Invitrogen; K1779) were used for (β-arrestin recruitment assays and maintained as a monolayer culture in McCoy's 5a (Corning; 10-050-CV) supplemented with 10% dialyzed Fetal Bovine Serum (Gibco; 26400-044), 0.1 mM MEM Non-essential amino acids solution, 25 mM HEPES solution (Corning; 25-060-CI), 1 mM Sodium Pyruvate (Gibco; 11360-070), 200 μg/mL Zeocin selection reagent (Gibco; R25001), 50 μg/mL Hygromycin B (Gibco, 10687010), and 100 μg/mL Geneticin (G418 Sulfate) (Gibco, 10131035). U2OS cells were subcultured twice weekly by 0.05% Trypsin-EDTA treatment (Corning; 25-051-CI) and passaged to continue exponential growth phase for cell signaling assays. All cell cultures were maintained in cell culture incubators at 37° C. with 5% CO2. CHO-K1 CXCR4 cells (DiscoverX, Fremont, CA, USA) were used for cAMP inhibition assays and maintained as a monolayer culture in DMEM/F12 (Corning; 10-091-CV) supplemented with 10% Fetal Bovine Serum (Corning; 35-011-CV) and 100IU penicillin, […] streptomycin sulfate (Corning; 30-002-CI) and […] G418 (Gibco; 101310350. Cells were subculture 2 times weekly by o.o5% Trypsin-EDTA treatment (Corning; 25-051-CI) and passaged to continue exponential growth phase for cell signaling assays. All cell cultures were maintained in cell culture incubators at 37° C. with 5% CO2.CEM-CCRF cells (ATCC CCL-119) were used in both the migration and calcium flux assays and were cultured in growth media consisting of RPMI 1640 (Corning; 10-040-CV) supplemented with 10% Fetal Bovine Serum (Corning; 35-011-CV), and 100 IU penicillin, […] streptomycin sulfate (Corning; 30-002-CI). […] Cells were harvested for use in migration and calcium flux assays at 2.0×10^6 cells/mL to 2.5×10^6 cells/mL and resuspended in assay media to desired density for respective experiments.
Compounds and DMSO normalization to 0.5% were dispensed using the TECAN D300e digital dispenser into the wells of a 384-well white wall clear-bottom assay plate (Griener 781983). […] This cell suspension was dispensed at 20 μL per well into the assay plate and allowed to incubate overnight for approximately 18 hrs with compounds in cell culture incubator at 37° C. with 5% CO2. Following incubation, DMEM/F12 media was gently removed, then the Lance Ultra cAMP Kit (Perkin Elmer; TRF0263) was performed according to the supplier guidelines. […] Time-resolved fluorescence was measured on the BMG LABTECH CLARIOstar Plus (BMG LABTECH Inc., Cary, NC) using the Lance Ultra cAMP kit guidelines for excitation and emission. […]

[3] = test system: CEM-CCRF human lymphoblast cells; test: Transwell migration assay in CEM-CCRF lymphoblasts; type: cell-based
Outline: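 CEM-CCRF cells at 5.0×10^5 cells/mL in RPMI 1640, preincubated 1 h at 37 °C, 5% CO2, then allowed to migrate in a 96-well transwell system for 3 h at 37 °C. Migrated cells in the receiver tray quantified by ATPLite luminescence.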

CXCR4 [4] = biological target: T1, CXCR4; test: cAMP signaling assay, oxazole scaffold (forskolin-induced adenylate cyclase, CHO-K1 CXCR4 cells); type: cell-based; set-up: host or cells: CHO-K1
Description: The CXCR4 receptor is a G-protein coupled receptor (GPCR) coupled to the Gi class, whose primary role is inhibition of adenylate cyclase. The ability of UCUF-728 to induce Gi-mediated cAMP-inhibitory cellular response was tested.
Forskolin at final concentration of […] was added to all wells using the TECAN dispenser. […] PathHunter CHO-K1 CXCR4 cells (DiscoverX, Fremont, CA) were added to compounds at 3,000 cells/well, centrifuged at 1000 rpm for 30 sec and incubated for 30 min at room temperature. DMSO (Sigma Aldrich, St. Louis, MO) was normalization to 0.5%. 5 μL of 4× Eu-cAMP tracer working solution was added to all wells followed by addition of 5 μL of 4× Ulight-anti-cAMP working solution to all wells. Plates were centrifuged at 1000 rpm for 1 min and incubated for 1 hr at room temperature then read using CLARIOstar Plus (BMG LABTECH Inc., Cary, NC) Lance CAMP protocol.

CXCR4 [5] = biological target: T1, CXCR4; test: β-arrestin recruitment, 384-well, Tango CXCR4-bla U2OS cells, normalized to SDF-1α; type: cell-based; set-up: host or cells: U2OS; details: normalized to SDF-1α; read-out: ß-arrestin recruitment EC50
Outline: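 Tango CXCR4-bla U2OS cells plated in DMEM with 1% dialyzed FBS (FreeStyle 293 medium for thiadiazines), incubated overnight at 37 °C, then LiveBLAzer FRET B/G substrate added for 2 h in the dark. Fluorescence read; EC50 and Emax fitted with Hill slope 1.0, normalized to SDF-1α.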

T1 sequence (P61073 whole entry): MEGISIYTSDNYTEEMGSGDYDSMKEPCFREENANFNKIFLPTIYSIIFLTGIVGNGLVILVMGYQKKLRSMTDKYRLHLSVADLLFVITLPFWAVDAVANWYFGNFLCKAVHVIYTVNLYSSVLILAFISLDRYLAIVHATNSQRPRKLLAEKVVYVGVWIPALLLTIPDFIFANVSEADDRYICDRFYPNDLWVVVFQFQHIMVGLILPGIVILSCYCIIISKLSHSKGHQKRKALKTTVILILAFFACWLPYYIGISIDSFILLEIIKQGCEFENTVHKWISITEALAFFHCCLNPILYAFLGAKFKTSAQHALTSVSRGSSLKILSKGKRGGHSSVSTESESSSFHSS

## c1cc(CN2CCCNCCNCCCNCC2)ccc1CN1CCCNCCNCCCNCC1 [AMD3100, reference compound]
CXCR4 [1]
  displacement of SDF-1α binding: dose-dependently displaced SDF-1α; also recorded: dose-dependently displaced SDF-1a saturation binding; also recorded: dose-dependently inhibited SDF-1α saturation binding
CXCR4 [2]
  cAMP inhibition activity: reduces the activity of SDF-1α to inhibit cAMP
CXCR4 [2]; read-out: SDF-1α Emax reduced to, in the presence of 1 μM AMD3100
  Emax: 40%
[3]
  migration activity (words): blocked; also recorded: completely blocks SDF-1α induced migration; also recorded: unable to inhibit UCUF-965-induced migration; also recorded: does not inhibit the migratory response of CEM-CCRF cells induced by UCUF-965
[3]; Homo sapiens, read-out: logIC50, inhibition of migration (converted)
  IC50: 31.6 nM
[3]; listed as AMD 3100
  migration activity (words): able to inhibit the migration response induced by SDF-1α
CXCR4 [4]
  cAMP signaling / forskolin-induced adenylate cyclase: dose-dependently blocked; also recorded: dose-dependent inhibition of 40 nM SDF-1α

## CCOc1ccccc1-c1nnc2n1N=C(c1ccc(N3CCCC3)cc1)CS2 [Entry 23]
CXCR4 [5]
  EC50: 20 nM
CXCR4 [2]; inhibition of forskolin-stimulated cAMP
  EC50: 50 nM

## CCOc1ccccc1-c1nnc2n1N=C(c1ccc(N3CCCC3=O)cc1)CS2 [compound 63]
CXCR4 [2]
  cAMP inhibition activity: partial agonist activity
[3]
  migration activity (words): partial agonist activity

## SDF-1α
CXCR4 [2]; CXCR4 overexpressing CHO cells, read-out: IC50, inhibition of forskolin-stimulated cAMP production
  IC50: 1.5 nM
CXCR4 [2]; log value
  log IC50, inhibition of forskolin-stimulated cAMP production: −8.9±0.1 M
CXCR4 [4]
  cAMP signaling / forskolin-induced adenylate cyclase: inhibited forskolin-induced adenylate cyclase
